Tests used:
[1] = molecular target: T1, juvenile hormone esterase (JHE) of Heliothis virescens, wild type (Heliothis virescens, UniProt P12992); assay: Kinetics of juvenile hormone hydrolysis by juvenile hormone esterase; assay type: biochemical
T1 sequence (P12992 20-564): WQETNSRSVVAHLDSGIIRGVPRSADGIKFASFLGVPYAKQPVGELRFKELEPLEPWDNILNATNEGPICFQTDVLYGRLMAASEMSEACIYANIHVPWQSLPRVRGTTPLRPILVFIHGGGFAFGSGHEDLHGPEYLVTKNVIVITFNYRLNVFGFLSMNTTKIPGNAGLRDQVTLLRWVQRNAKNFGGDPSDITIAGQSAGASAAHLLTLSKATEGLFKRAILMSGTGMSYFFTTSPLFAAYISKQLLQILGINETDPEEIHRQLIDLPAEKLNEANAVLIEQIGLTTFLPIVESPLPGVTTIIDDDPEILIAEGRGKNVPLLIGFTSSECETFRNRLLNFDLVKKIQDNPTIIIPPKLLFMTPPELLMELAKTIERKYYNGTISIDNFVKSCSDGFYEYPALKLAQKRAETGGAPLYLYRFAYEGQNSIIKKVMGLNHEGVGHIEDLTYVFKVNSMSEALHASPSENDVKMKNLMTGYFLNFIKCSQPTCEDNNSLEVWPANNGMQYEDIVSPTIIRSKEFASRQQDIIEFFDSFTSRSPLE

[2] = molecular target: T2, juvenile hormone hemolymph carrier protein of H. virescens (Heliothis virescens, UniProt Q25175); assay: Binding of juvenile hormone by the hemolymph carrier protein; conditions: juvenile hormone bound by the carrier protein; for H. virescens
T2 sequence (Q25175 19-242): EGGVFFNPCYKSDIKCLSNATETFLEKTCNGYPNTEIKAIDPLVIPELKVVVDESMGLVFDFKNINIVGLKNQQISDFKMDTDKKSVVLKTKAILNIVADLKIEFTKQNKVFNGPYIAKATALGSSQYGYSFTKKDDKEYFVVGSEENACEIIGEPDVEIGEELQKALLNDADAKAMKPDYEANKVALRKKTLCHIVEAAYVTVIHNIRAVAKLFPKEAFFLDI

juvenile hormone
kCAT/KM ratio ([1]; substrate JH, JHE of H. virescens and of several other species): > 10^8 | Km ([1]; substrate juvenile hormone): 0.06 µM | Kd [2]: 610 nM

— patent US5643776A, “Insect diagnostic and control compositions” (The Regents of the University of California, priority 1992, dated 1997)
